Legend:
Assay type in all cases: functional
Conditions in all cases: read-out: DIZ
Escherichia coli [1] = test: Antibacterial activity against Escherichia coli at 200 ug/ml
Bacillus subtilis [2] = test: Antibacterial activity against Bacillus subtilis at 200 ug/ml
Staphylococcus aureus [3] = test: Antibacterial activity against Staphylococcus aureus at 100 ug/ml
Pseudomonas aeruginosa [4] = test: Antibacterial activity against Pseudomonas aeruginosa at 50 ug/ml
Pseudomonas aeruginosa [5] = test: Antibacterial activity against Pseudomonas aeruginosa at 100 ug/ml
Escherichia coli [6] = test: Antibacterial activity against Escherichia coli at 100 ug/ml
Staphylococcus aureus [7] = test: Antibacterial activity against Staphylococcus aureus at 200 ug/ml
Bacillus subtilis [8] = test: Antibacterial activity against Bacillus subtilis at 100 ug/ml
Aspergillus niger [9] = test: Antifungal activity against Aspergillus niger at 100 ug/ml
Candida albicans [10] = test: Antifungal activity against Candida albicans at 200 ug/ml
Bacillus subtilis [11] = test: Antibacterial activity against Bacillus subtilis at 50 ug/ml
Pseudomonas aeruginosa [12] = test: Antibacterial activity against Pseudomonas aeruginosa at 200 ug/ml
Escherichia coli [13] = test: Antibacterial activity against Escherichia coli at 50 ug/ml
Aspergillus niger [14] = test: Antifungal activity against Aspergillus niger at 200 ug/ml
Candida albicans [15] = test: Antifungal activity against Candida albicans at 100 ug/ml
Staphylococcus aureus [16] = test: Antibacterial activity against Staphylococcus aureus at 50 ug/ml
Candida albicans [17] = test: Antifungal activity against Candida albicans at 50 ug/ml

Structure (SMILES)	zone of inhibition at 200 µg/mL (Escherichia coli [1])	zone of inhibition at 200 µg/mL (Bacillus subtilis [2])	zone of inhibition at 100 µg/mL (Staphylococcus aureus [3])	zone of inhibition at 50 µg/mL (Pseudomonas aeruginosa [4])	zone of inhibition at 100 µg/mL (Pseudomonas aeruginosa [5])	zone of inhibition at 100 µg/mL (Escherichia coli [6])	zone of inhibition at 200 µg/mL (Staphylococcus aureus [7])	zone of inhibition at 100 µg/mL (Bacillus subtilis [8])	zone of inhibition at 100 µg/mL (Aspergillus niger [9])	zone of inhibition at 200 µg/mL (Candida albicans [10])	zone of inhibition at 50 µg/mL (Bacillus subtilis [11])	zone of inhibition at 200 µg/mL (Pseudomonas aeruginosa [12])	zone of inhibition at 50 µg/mL (Escherichia coli [13])	zone of inhibition at 200 µg/mL (Aspergillus niger [14])	zone of inhibition at 100 µg/mL (Candida albicans [15])	zone of inhibition at 50 µg/mL (Staphylococcus aureus [16])	zone of inhibition at 50 µg/mL (Candida albicans [17])
O=C1Nc2ccccc2/C1=N/n1c(Cc2ccccc2)n[nH]c1=S	23 mm	20 mm	16 mm	13 mm	16 mm	19 mm	22 mm	15 mm	9 mm	15 mm	9 mm	24 mm	12 mm	14 mm	9 mm	10 mm	
O=C1Nc2ccc(Cl)cc2/C1=N/n1c(Cc2ccccc2)n[nH]c1=S	27 mm	20 mm	11 mm	9 mm	13 mm	18 mm	23 mm	14 mm	9 mm	16 mm	9 mm	25 mm	11 mm	12 mm	9 mm		
O=C1Nc2ccc(Br)cc2/C1=N/n1c(Cc2ccccc2)n[nH]c1=S	27 mm	20 mm	12 mm	10 mm	15 mm	17 mm	20 mm	15 mm	10 mm	17 mm	9 mm	25 mm	11 mm	14 mm	11 mm	9 mm	
CCN(CC)CN1C(=O)/C(=N\n2c(Cc3ccccc3)n[nH]c2=S)c2ccccc21	22 mm	20 mm	16 mm	9 mm	13 mm	15 mm	23 mm	13 mm	9 mm	17 mm	9 mm	20 mm	9 mm	13 mm	10 mm	11 mm	
CCN(CC)CN1C(=O)/C(=N\n2c(Cc3ccccc3)n[nH]c2=S)c2cc(Cl)ccc21	27 mm	20 mm	12 mm	9 mm	16 mm	17 mm	21 mm	14 mm	9 mm	15 mm	9 mm	22 mm	11 mm	12 mm	9 mm	9 mm	
CCN(CC)CN1C(=O)/C(=N\n2c(Cc3ccccc3)n[nH]c2=S)c2cc(Br)ccc21	26 mm	20 mm	14 mm	9 mm	14 mm	16 mm	20 mm	13 mm	9 mm	16 mm	9 mm	23 mm	10 mm	13 mm	10 mm	9 mm	
O=C1/C(=N\n2c(Cc3ccccc3)n[nH]c2=S)c2ccccc2N1CN1CCCCC1	23 mm	20 mm	14 mm	10 mm	16 mm	18 mm	20 mm	12 mm	9 mm	16 mm	9 mm	20 mm	11 mm	13 mm	10 mm	9 mm	
O=C1/C(=N\n2c(Cc3ccccc3)n[nH]c2=S)c2cc(Cl)ccc2N1CN1CCCCC1	25 mm	22 mm	12 mm	10 mm	15 mm	16 mm	20 mm	13 mm	9 mm	16 mm	9 mm	21 mm	10 mm	15 mm	11 mm	9 mm	9 mm
O=C1/C(=N\n2c(Cc3ccccc3)n[nH]c2=S)c2cc(Br)ccc2N1CN1CCCCC1	25 mm	20 mm	14 mm	10 mm	15 mm	16 mm	21 mm	15 mm	9 mm	16 mm	10 mm	22 mm	10 mm	15 mm	10 mm	9 mm	
O=C1/C(=N\n2c(Cc3ccccc3)n[nH]c2=S)c2ccccc2N1CN1CCOCC1	23 mm	20 mm	15 mm	9 mm	12 mm	15 mm	19 mm	13 mm	9 mm	15 mm	9 mm	22 mm	9 mm	12 mm	10 mm	10 mm	
O=C1/C(=N\n2c(Cc3ccccc3)n[nH]c2=S)c2cc(Cl)ccc2N1CN1CCOCC1	25 mm	22 mm	14 mm	9 mm	15 mm	16 mm	20 mm	13 mm	9 mm	17 mm	9 mm	25 mm	11 mm	17 mm	10 mm	9 mm	
O=C1/C(=N\n2c(Cc3ccccc3)n[nH]c2=S)c2cc(Br)ccc2N1CN1CCOCC1	24 mm	21 mm	13 mm	10 mm	15 mm	16 mm	20 mm	12 mm	9 mm	15 mm	9 mm	24 mm	9 mm	12 mm	10 mm	9 mm	
O=C(O)c1cn(C2CC2)c2cc(N3CCNCC3)c(F)cc2c1=O [CIPROFLOXACIN]	30 mm	25 mm					26 mm					28 mm					
OC(Cn1cncn1)(Cn1cncn1)c1ccc(F)cc1F [FLUCONAZOLE]										20 mm				18 mm			

Reference: ChEMBL document CHEMBL3046672, “Synthesis and bioevaluation of Schiff and Mannich bases of isatin derivatives with 4-amino-5-benzyl-2,4-dihydro-3H-1,2,4-triazole-3-thione” (2012)
